Source: patent publication US7704948B2, “Pharmaceutical composition” (Euro-Celtique S.A., priority 2001, dated 2010)

Key:
[1] = cited from earlier work
[2] = Stability of bisacodyl in poloxamer melt; assay type: physicochemical; conditions: hot melt of bisacodyl and poloxamer
Source text: Such a product will have advantages with regard to dosage form and other properties. […] Furthermore production scale enteric coating of capsules containing a low melting point, waxy, solid is very difficult due to melting and leakage or softening and deformation of the waxy, low melting point poloxamer.

SMILES: CC(=O)Oc1ccc(C(c2ccc(OC(C)=O)cc2)c2ccccn2)cc1 [Bisacodyl]
- time to action in the large intestine ([1]; following oral administration): 6 to 12 h
- onset of action ([1]; suppositories): 20 to 60 min
- stability of bisacodyl in poloxamer [2]: unstable in poloxamer
